Data as given in patent EP4516281A1, “COSMETIC COMPOSITIONS” (The Boots Company plc, priority 2023, dated 2025).

System: mushroom tyrosinase
Assay: Tyrosinase inhibition screening (L-DOPA oxidation, absorbance at 470 nm)
Assay type: biochemical
Settings: Concentration 0.1%; single compounds
Description: The tyrosinase inhibition may be used to determine the tyrosinase inhibition ability of the compounds. The test comprises adding the test compound to a solution of L-dihydroxyphenylalanine (L-(DOPA)) and mushroom tyrosinase. L-(DOPA) is converted to […] by the mushroom tyrosinase, causing a brown colour to form. Inhibition of this reaction prevents the brown colour formation. The lighter the colour at the end of the reaction, the stronger is the inhibitory effect of the active. Absorbance data may be collected using a plate reacted set up to have a kinetic read every 1 minute for 30 minutes, where absorbance is read at 470 nm.

Row | Compound | Tyrosinase Inhibition (%)
1 | C=C(C)[C@@H]1CCC(C)=C[C@H]1c1c(O)cc(CCCCC)cc1O [F, Cannabidiol isolate (CBD)] | 9.134
2 | CCCCCCCCCCCCCCC[C@@H](O)[C@@H](N)CO [G, Sphinganine] | -5.78
3 | Feruloyl oligopeptide-33 | 41.765
4 | O=C(O)C(O)c1ccccc1 (stereo not shown) [C, Mandelic acid] | 80.279
